From US8486951B2 (Deciphera Pharmaceuticals, LLC, priority 2008, dated 2013)
Where two headings read alike, the source gives them in different places.

Tests used:
[1] = molecular target: T1, FMS kinase (Homo sapiens, UniProt P07333); assay: FMS Kinase Assay; type: biochemical; settings: read-out: FMS Enzyme Assay
T1 construct: purchased Invitrogen or Millipore
Experimental: (§1) In this assay, the oxidation of NADH (thus the decrease at A340 nm) was continuously monitored spectrophometrically. The reaction mixture (100 μl) contained FMS (purchased from Invitrogen or Millipore, 6 nM), polyE4Y (1 mg/ml), MgCl2 (10 mM), pyruvate kinase (4 units), lactate dehydrogenase (0.7 units), phosphoenol pyruvate (1 mM) and NADH (0.28 mM) and ATP (500 μM) in a 90 mM Tris buffer containing 0.2% octyl-glucoside and 1% DMSO, pH 7.5. The inhibition reaction was started by mixing serial diluted test compound with the above reaction mixture. The absorption at 340 nm was monitored continuously for 4 hours at 30° C. on a Polarstar Optima or Synergy 2 plate reader. The reaction rate was calculated using the 2 to 3 h time frame. Percent inhibition was obtained by comparison of reaction rate with that of a control (i.e. with no test compound). IC50 values were calculated from a series of percent inhibition values determined at a range of inhibitor concentrations using software routines as implemented in the GraphPad Prism software package.

[2] = molecular target: T2, PDGFRβ (Homo sapiens, UniProt P09619); assay: PDGFRβ Kinase Assay; type: biochemical; settings: read-out: PDGFRb Enzyme Assay
T2 construct: purchased Invitrogen
T2 sequence (P09619 33-1106): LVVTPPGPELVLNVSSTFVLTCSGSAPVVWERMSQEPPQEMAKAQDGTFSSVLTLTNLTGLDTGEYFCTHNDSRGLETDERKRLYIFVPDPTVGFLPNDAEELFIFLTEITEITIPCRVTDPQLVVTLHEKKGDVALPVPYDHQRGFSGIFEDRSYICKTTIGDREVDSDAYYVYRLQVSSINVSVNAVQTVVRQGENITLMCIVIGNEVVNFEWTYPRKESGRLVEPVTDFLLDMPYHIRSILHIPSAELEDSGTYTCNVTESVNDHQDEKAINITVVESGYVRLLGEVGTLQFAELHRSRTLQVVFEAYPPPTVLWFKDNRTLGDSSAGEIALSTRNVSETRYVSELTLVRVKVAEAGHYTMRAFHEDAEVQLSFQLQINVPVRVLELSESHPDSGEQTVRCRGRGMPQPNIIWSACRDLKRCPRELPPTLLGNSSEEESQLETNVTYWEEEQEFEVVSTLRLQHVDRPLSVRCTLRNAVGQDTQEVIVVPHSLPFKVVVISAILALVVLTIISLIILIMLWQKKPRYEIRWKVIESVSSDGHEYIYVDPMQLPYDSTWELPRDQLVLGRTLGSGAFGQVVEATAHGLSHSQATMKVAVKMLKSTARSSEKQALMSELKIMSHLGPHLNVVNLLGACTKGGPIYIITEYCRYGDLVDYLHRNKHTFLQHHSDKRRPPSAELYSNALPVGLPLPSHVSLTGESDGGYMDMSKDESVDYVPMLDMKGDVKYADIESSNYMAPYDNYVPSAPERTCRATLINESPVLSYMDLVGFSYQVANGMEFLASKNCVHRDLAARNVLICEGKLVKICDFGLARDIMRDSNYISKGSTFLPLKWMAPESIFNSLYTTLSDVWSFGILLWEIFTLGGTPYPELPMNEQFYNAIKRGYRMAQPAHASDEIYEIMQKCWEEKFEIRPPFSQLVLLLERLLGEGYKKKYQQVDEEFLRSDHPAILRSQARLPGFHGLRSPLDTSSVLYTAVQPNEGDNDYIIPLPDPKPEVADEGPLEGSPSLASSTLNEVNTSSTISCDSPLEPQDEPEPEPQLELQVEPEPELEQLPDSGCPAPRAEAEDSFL

[3] = tested on: EBC-1 cells; assay: EBC-1 Cell Proliferation Assay (resazurin); type: cell-based; settings: 67 h + 5 h resazurin, read-out: EBC1 Cell Proliferation
Experimental: EBC-1 cells (catalog #JCRB0820) were obtained from the Japan Health Science Research Resources Bank, Osaka, Japan. Briefly, cells were grown in DMEM supplemented with 10% characterized fetal bovine serum (Invitrogen, Carlsbad, Calif.) at 37 degrees Celsius, 5% CO2, 95% humidity. Cells were allowed to expand until reaching 70-95% confluency at which point they were subcultured or harvested for assay use.
EBC-1 Cell Proliferation Assay
(§2) A serial dilution of test compound was dispensed into a 96-well black clear bottom plate (Corning, Corning, N.Y.). For each cell line, five thousand cells were added per well in 200 μL complete growth medium. Plates were incubated for 67 hours at 37 degrees Celsius, 5% CO2, 95% humidity. […] Data was analyzed using Prism software (Graphpad, San Diego, Calif.) to calculate IC50 values.

[4] = molecular target: T3, c-KIT kinase (Seq. ID no. 1) (Homo sapiens, UniProt P10721); assay: c-KIT kinase Assay (ADP production, pyruvate kinase/lactate dehydrogenase coupled); type: biochemical; settings: read-out: cKIT Enzyme Assay
T3 construct: purchased ProQinase
T3 sequence (P10721 with tags, fused parts or gaps): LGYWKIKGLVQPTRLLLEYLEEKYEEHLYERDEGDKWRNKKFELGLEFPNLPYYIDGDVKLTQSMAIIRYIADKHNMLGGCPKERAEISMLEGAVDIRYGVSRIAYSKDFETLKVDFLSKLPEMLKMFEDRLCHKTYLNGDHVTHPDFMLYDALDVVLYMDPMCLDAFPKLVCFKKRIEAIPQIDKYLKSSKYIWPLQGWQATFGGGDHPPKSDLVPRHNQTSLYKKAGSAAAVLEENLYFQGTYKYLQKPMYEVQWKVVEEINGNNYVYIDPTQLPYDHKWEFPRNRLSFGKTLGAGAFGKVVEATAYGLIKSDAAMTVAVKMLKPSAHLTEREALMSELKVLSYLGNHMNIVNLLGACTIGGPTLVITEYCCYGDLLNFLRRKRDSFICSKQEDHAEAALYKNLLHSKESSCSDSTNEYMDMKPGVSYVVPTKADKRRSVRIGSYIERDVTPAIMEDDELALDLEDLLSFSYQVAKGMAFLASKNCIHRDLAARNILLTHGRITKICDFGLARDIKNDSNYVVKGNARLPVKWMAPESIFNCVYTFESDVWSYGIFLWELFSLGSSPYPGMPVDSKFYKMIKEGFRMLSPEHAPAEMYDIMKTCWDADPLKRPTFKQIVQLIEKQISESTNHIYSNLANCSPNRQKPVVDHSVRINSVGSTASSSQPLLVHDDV
Experimental: In this assay, the oxidation of NADH (thus the decrease at A340 nm) was continuously monitored spectrophometrically. […] The absorption at 340 nm was monitored continuously for 0.5 hours at 30° C. on Polarstar Optima plate reader (BMG). The reaction rate was calculated using the 0 to 0.5 h time frame. Percent inhibition was obtained by comparison of reaction rate with that of a control (i.e. with no test compound). IC50 values were calculated from a series of percent inhibition values determined at a range of inhibitor concentrations using software routines as implemented in the GraphPad Prism software package.

[5] = molecular target: T4, PDGFRα kinase (Homo sapiens, UniProt P16234); assay: PDGFRα Kinase Assay; type: biochemical; settings: read-out: PDGFRa Enzyme Assay
T4 construct: purchased Invitrogen
T4 sequence (P16234 24-1089): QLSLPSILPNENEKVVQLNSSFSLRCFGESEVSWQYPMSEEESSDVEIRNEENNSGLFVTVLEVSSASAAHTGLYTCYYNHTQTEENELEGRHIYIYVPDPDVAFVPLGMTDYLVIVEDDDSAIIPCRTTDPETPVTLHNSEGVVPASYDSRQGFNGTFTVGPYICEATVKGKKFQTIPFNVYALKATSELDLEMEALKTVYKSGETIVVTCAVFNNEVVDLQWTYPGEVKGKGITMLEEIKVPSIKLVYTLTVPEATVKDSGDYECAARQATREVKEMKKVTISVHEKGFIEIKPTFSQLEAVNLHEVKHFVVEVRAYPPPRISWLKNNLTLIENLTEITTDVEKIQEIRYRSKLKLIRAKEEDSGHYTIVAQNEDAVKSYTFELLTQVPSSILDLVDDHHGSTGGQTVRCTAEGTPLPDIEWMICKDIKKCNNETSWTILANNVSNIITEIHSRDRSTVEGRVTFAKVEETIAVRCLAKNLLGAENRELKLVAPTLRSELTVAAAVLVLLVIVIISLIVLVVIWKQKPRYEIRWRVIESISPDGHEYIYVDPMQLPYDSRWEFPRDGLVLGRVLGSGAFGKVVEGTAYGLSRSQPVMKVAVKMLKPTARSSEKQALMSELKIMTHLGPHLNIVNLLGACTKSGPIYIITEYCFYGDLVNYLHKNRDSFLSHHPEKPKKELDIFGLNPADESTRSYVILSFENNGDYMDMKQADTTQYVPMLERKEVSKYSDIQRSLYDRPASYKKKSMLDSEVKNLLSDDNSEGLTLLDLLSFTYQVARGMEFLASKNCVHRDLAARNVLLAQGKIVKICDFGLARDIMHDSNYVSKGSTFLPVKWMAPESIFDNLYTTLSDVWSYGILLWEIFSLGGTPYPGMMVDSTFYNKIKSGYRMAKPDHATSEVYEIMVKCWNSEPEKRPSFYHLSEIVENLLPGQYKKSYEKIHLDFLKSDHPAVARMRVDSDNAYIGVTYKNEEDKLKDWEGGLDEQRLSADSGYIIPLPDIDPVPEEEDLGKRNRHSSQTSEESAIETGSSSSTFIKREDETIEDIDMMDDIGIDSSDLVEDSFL
Experimental: as §1, with “Activity of PDGFRα kinase was determined by following the production of ADP from the kinase reaction through coupling with the pyruvate kinase/lactate dehydrogenase system. In” for “In”, “PDGFRα (Invitrogen, 10” for “FMS (purchased from Invitrogen or Millipore, 6”

[6] = molecular target: KDR kinase (Seq ID No. 3) (Homo sapiens, UniProt P35968, DEL940-989/E990V); assay: KDR Kinase Assay (assays K1, K2, K3); type: biochemical; settings: assay variant K1, K2 or K3 not stated; read-out: KDR Enzyme Assay
Sequence of KDR kinase (Seq ID No. 3) (P35968 with tags, fused parts or gaps DEL940-989/E990V): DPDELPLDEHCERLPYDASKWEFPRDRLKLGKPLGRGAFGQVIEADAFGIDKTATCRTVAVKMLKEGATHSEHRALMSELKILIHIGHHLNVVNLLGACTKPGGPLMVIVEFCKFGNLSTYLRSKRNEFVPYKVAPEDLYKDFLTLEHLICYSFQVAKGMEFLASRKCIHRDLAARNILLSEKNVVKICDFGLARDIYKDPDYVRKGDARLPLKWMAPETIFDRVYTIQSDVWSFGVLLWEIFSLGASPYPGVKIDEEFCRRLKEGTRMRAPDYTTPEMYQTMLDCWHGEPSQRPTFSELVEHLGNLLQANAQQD

[7] = molecular target: T5, phospho-VEGF R2 (Homo sapiens, UniProt P35968); assay: HUVEC VEGF/KDR ELISA (phospho-VEGF R2 after VEGF stimulation); type: cell-based; settings: 4 h compound, 100 ng/mL VEGF 5 min, read-out: HUVEC pKDR
T5 construct: host or cells: HUVEC
Experimental: HUVEC (Human umbilical vein endothelial cell) cells were obtained from Lonza (Lonza, Walkersville, Md.). Briefly, cells were grown in EGM-2 (Lonza, Walkersville, Md.) at 37 degrees Celsius, 5% CO2, 95% humidity. Cells were allowed to expand until reaching 90-95% saturation at which point they were subcultured or harvested for assay use. For assay use, cells were harvested and grown in EGM-2 medium supplemented with 2% FBS (Lonza, Walkersville, Md.).
Twenty-five thousand cells were added per well in a 96-well black clear bottom plate (Corning, Corning, N.Y.). Cells were then incubated overnight at 37 degrees Celsius, 5% CO2, 95% humidity. A serial dilution of test compound was dispensed into another 96-well black clear bottom plate (Corning, Corning, N.Y.) containing EBM-2 supplemented with 2% FBS. Compound was added to plates containing cells and incubated for 4 hours at 37 degrees Celsius, 5% CO2, 95% humidity. Cells were stimulated with 100 ng/mL VEGF (R&D Systems, Minneapolis, Minn.) for 5 minutes, then lysed. Cell lysates were used to detect phospho-VEGF R2 using DuoSet IC HUVEC VEGF/KDR ELISA (R&D Systems, Minneapolis, Minn.). Data was analyzed using Prism software (Graphpad, San Diego, Calif.) to calculate IC50's.

[8] = molecular target: T6, c-MET kinase (Seq. ID no. 2) (Homo sapiens, UniProt P08581); assay: c-MET Kinase Assay (ADP production, pyruvate kinase/lactate dehydrogenase coupled); type: biochemical; settings: read-out: cMET Enzyme Assay
T6 construct: purchased Invitrogen PV3143
T6 sequence (P08581 with tags, fused parts or gaps): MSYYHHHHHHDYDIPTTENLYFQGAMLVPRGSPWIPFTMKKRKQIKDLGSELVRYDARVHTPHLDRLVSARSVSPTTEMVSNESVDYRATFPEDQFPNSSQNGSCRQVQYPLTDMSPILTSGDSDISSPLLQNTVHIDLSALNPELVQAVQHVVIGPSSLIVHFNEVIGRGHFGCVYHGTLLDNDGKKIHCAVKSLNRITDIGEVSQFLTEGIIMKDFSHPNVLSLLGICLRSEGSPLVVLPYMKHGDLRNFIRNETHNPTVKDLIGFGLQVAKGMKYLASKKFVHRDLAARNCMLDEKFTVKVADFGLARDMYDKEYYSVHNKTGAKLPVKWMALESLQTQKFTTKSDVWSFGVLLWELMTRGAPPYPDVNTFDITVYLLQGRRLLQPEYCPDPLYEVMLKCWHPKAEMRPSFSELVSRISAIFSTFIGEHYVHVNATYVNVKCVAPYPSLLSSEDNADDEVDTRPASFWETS
Experimental: In this assay, the oxidation of NADH (thus the decrease at A340 nm) was continuously monitored spectrophometrically. […] Test compounds were incubated with C-Met (Seq. ID no. 2) and other reaction reagents at 22° C. for 0.5 h before ATP (100 μM) was added to start the reaction. The absorption at 340 nm was monitored continuously for 2 hours at 30° C. on Polarstar Optima plate reader (BMG). The reaction rate was calculated using the 1.0 to 2.0 h time frame. Percent inhibition was obtained by comparison of reaction rate with that of a control (i.e. with no test compound). IC50 values were calculated from a series of percent inhibition values determined at a range of inhibitor concentrations using software routines as implemented in the GraphPad Prism software package.

[9] = tested on: M-NFS-60 cells; assay: M-NFS-60 Cell Proliferation Assay (resazurin); type: cell-based; settings: 67 h + 5 h resazurin
Experimental: Cells were allowed to expand until reaching saturation at which point they were subcultured or harvested for assay use.
M-NFS-60 Cell Proliferation Assay
as §2, with “384-well” for “96-well”, “Two thousand” for “For each cell line,”, “hundred” for “thousand”, “50” for “200”, “CO2, and” for “CO2,”

[10] = molecular target: T7, Mo-7e pKIT (Homo sapiens, UniProt P10721); assay: Mo-7e pKIT cellular assay; type: cell-based; settings: Mo-7e cells
T7 construct: endogenous in cells; host or cells: Mo-7e

T1 sequence (P07333 20-972): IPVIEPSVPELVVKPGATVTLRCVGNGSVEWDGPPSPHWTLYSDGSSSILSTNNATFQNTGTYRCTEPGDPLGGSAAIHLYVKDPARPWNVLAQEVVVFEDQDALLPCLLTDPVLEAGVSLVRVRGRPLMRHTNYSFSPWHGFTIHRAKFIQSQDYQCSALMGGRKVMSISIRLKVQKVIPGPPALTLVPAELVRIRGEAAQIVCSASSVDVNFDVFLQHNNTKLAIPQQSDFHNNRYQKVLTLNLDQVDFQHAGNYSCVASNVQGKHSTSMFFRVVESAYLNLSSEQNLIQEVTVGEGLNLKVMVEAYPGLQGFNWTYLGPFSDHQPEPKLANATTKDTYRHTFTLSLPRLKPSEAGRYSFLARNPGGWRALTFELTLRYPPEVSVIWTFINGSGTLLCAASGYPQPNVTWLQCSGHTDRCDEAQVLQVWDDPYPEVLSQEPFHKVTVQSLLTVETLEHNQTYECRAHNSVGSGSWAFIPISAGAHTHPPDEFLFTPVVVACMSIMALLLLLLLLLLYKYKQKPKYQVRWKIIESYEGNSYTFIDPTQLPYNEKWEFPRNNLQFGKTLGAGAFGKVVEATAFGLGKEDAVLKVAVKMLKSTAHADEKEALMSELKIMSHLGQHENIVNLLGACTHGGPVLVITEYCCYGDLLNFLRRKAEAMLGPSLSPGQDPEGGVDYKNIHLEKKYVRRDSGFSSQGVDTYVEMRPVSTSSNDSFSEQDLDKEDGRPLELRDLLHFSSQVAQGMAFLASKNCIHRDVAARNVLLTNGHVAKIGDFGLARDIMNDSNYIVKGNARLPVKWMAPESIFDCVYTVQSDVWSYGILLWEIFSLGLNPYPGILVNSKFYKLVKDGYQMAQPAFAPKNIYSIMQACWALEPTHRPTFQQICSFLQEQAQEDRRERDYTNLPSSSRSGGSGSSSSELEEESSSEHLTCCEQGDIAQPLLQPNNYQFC

Compound | IC50 [1] [nM] | IC50 [2] [nM] | IC50 [4] [nM] | IC50 [5] [nM] | IC50 [6] [nM] | IC50 [8] [nM] | IC50 [10] [nM] | IC50 ([3]; Homo sapiens) [nM] | IC50 [7] [nM] | IC50 [9] [nM] | IC50 [3] [nM]
Cn1cc(-c2cc(Oc3ccc(NC(=O)C4(C(=O)Nc5ccc(Cl)cc5)CC4)c(F)c3)ccn2)cn1 [Example 22, N-(4-chlorophenyl)-N′-(2-fluoro-4-(2-(1-methyl-1H-pyrazol-4-yl)pyridin-4-yloxy)phenyl)cyclopropane-1,1-dicarboxamide] | < 200 | < 2000 | < 2000 | < 2000 | < 2000 | < 2000 |  | < 2000 |  |  | 
Cc1ccc(NC(=O)C2(C(=O)Nc3ccc(Oc4ccnc(-c5cnn(C)c5)c4)cc3F)CC2)cc1 [Example 23, N-(2-fluoro-4-(2-(1-methyl-1H-pyrazol-4-yl)pyridin-4-yloxy)phenyl)-N′-p-tolylcyclopropane-1,1-dicarboxamide] | < 2000 | < 10000 | < 10000 | < 10000 | < 10000 | < 2000 |  | < 2000 |  |  | 
Cn1cc(-c2cc(Oc3cc(F)c(NC(=O)C4(C(=O)Nc5ccccc5)CC4)cc3F)ccn2)cn1 [Example 45, N-(2,5-difluoro-4-(2-(1-methyl-1H-pyrazol-4-yl)pyridin-4-yloxy)phenyl)-N′-phenylcyclopropane-1,1-dicarboxamide] |  | < 10000 | < 200 | < 10000 | < 2000 | < 200 | < 200 | < 200 |  |  | 
Cc1nn(C)cc1-c1cc(Oc2cc(F)c(NC(=O)C3(C(=O)Nc4ccc(F)cc4)CC3)cc2F)ccn1 [Example 49, N-(4-(2-(1,3-Dimethyl-1H-pyrazol-4-yl)pyridin-4-yloxy)-2,5-difluorophenyl)-N′-(4-fluorophenyl)cyclopropane-1,1-dicarboxamide] | < 2000 | < 10000 | < 200 | < 10000 | < 2000 | < 200 |  | < 2000 |  |  | 
N-(2,5-difluoro-4-(2-(1-methyl-1H-pyrazol-4-yl)pyridin-4-yloxy)phenyl)-N-(4-fluorophenyl)cyclopropane-1,1-dicarboxamide [Example 40] |  | < 10000 | < 200 | < 2000 | < 200 | < 200 |  |  | < 2000 |  | < 200

Now from value to compound, other results behind:

IC50 [1] [nM] | IC50 [2] [nM] | IC50 [4] [nM] | IC50 [5] [nM] | IC50 [6] [nM] | IC50 [8] [nM] | IC50 [10] [nM] | Compound | IC50 ([3]; Homo sapiens) [nM] | IC50 [7] [nM] | IC50 [9] [nM] | IC50 [3] [nM]
< 200 | < 10000 | < 10000 | < 2000 | < 2000 |  |  | Cn1cc(-c2cc(Oc3ccc(NC(=O)C4(C(=O)Nc5ccc(F)cc5)CC4)c(F)c3)ccn2)cn1 [Example 7, N-(2-fluoro-4-(2-(1-methyl-1H-pyrazol-4-yl)pyridin-4-yloxy)phenyl)-N′-(4-fluorophenyl)cyclopropane-1,1-dicarboxamide] | < 200 | < 2000 |  | 
< 200 | < 10000 | < 2000 | < 2000 | < 2000 | < 2000 |  | Cn1cc(-c2cc(Oc3ccc(NC(=O)C4(C(=O)Nc5ccc(F)cc5)CC4)nc3)ccn2)cn1 [Example 41, N-(4-fluorophenyl)-N′-(5-(2-(1-methyl-1,4-pyrazol-4-yl)pyridin-4-yloxy)pyridin-2-yl)cyclopropane-1,1-dicarboxamide] |  |  | < 10000 | 
 | < 10000 | < 200 | < 200 | < 10000 | < 200 | < 2000 | Cn1cc(-c2cc(Oc3cc(F)c(NC(=O)NC(=O)Cc4ccc(F)cc4)cc3F)ccn2)cn1 [Example 42, 1-(2,5-difluoro-4-(2-(1-methyl-1H-pyrazol-4-yl)pyridin-4-yloxy)phenyl)-3-(2-(4-fluorophenyl)acetyl)urea] | < 200 |  |  | 
< 200 | < 2000 | < 200 | < 2000 | < 2000 | < 200 |  | Cc1cc(NC(=O)C2(C(=O)Nc3ccc(F)cc3)CC2)c(F)cc1Oc1ccnc(-c2cnn(C)c2)c1 [Example 51, N-(2-fluoro-5-methyl-4-(2-(1-methyl-1H-pyrazol-4-yl)pyridin-4-yloxy)phenyl)-N′-(4-fluorophenyl)cyclopropane-1,1-dicarboxamide] | < 2000 |  |  | 
